For test [1], the target named is cGMP-specific 3',5'-cyclic phosphodiesterase (Canis lupus familiaris, UniProt O77746). Nature of the test: Inhibitory activity against phosphodiesterase 5 (PDE V), isolated from lung.
Test [2] has as its target Phosphodiesterase 3 (Canis familiaris). The test is described as follows: Inhibitory activity against phosphodiesterase 3 (PDE 3) isolated from cardiac ventricle.
The target in test [3] is Phosphodiesterase 1 (Canis familiaris). Nature of the test: Inhibitory activity against phosphodiesterase 1 (PDE I), isolated from cardiac ventricle.
The target in test [4] is Phosphodiesterase 2 (Canis familiaris). Nature of the test: Inhibition of canine adrenal gland Phosphodiesterase 2.
A further test is filed under the species Rattus norvegicus. The test is described as follows: Relaxant effect on rat aortic rings. It is filed as functional, organism-based. The note with it: Aorta.
In test [5] the target is Phosphodiesterase 4 (Canis familiaris). Nature of the test: Inhibition of canine lung Phosphodiesterase 4.

Where only a bound is given, the exact number is not on record here.

As usually defined, the IC50 is the concentration that gives 50% inhibition. Low values mean greater potency, high ones weaker potency. As for `COC(=O)c1c(C(=O)N2CCN(CCO)CC2)cc2cc(OC)c(OC)c(OC)c2c1-c1cc(Br)c(OC)c(OC)c1`, the IC50 in test [1], in test [2] and in test [3] was more than 100 µM throughout.

As for `COC(=O)c1c(C(=O)N2CCN(C)CC2)cc2cc(OC)c(OC)cc2c1-c1cc(OC)c(OC)c(OC)c1`, the IC50 was 1.4 µM in test [1], more than 100 µM in test [2] and 69 µM in test [3].

One may read the EC50 as the concentration at which the effect is half-maximal. A low value points to an effect from little substance. With `COC(=O)c1c(C(=O)N2CCN(CCO)CC2)cc2ccccc2c1-c1cc(Br)c(OC)c(OC)c1`, the IC50 in test [4] was more than 100 µM; in test [5] it was more than 100 µM; in test [1], 0.025 µM; in test [2], more than 100 µM; in test [3], 3.4 µM. This compound also registered an EC50 in the test listed under Rattus norvegicus of 0.79 µM.

For the compound `COC(=O)c1c(C(=O)N2CCN(CCO)CC2)cc2cc(OC)c(OC)cc2c1-c1cc(N)c(OC)c(OC)c1`, the results for the IC50 in test [1], in test [2] and in test [3] were 30 µM, more than 100 µM and more than 100 µM, respectively.

Turning to `COc1cc2cc3c(c(-c4cc(OC)c(OC)c(OC)c4)c2cc1OC)COC3=O`, the IC50 stood at 0.068 µM in test [1], 0.84 µM in test [2] and 0.43 µM in test [3].

For the compound `COC(=O)c1c(C(=O)N2CCN(CCO)CC2)cc2cc(OC)c(OC)cc2c1-c1ccnc(Br)c1`, the IC50 in test [1] was more than 100 µM.

Regarding `COC(=O)c1cc2cc(OC)c(OC)cc2c(-c2cc(OC)c(OC)c(OC)c2)c1C(=O)OC`, the IC50 is 2.1 µM in test [1], more than 100 µM in test [2] and more than 100 µM in test [3].

`COC(=O)c1c(C(=O)N2CCC(CO)CC2)cc2cc(OC)c(OC)cc2c1-c1cc(OC)c(OC)c(OC)c1`: the IC50 in test [1] is 0.32 µM; in test [2] it was more than 100 µM; in test [3], 45 µM.

In test [1], `COC(=O)c1c(C(=O)N2CCN(CCO)CC2)cc2cc(OC)c(OC)cc2c1-c1cc(OC)c(OC)cc1C` gave an IC50 of 52 µM. This counts as double-digit micromolar.

For `COc1cc2cc(N)c(CO)c(-c3cc(OC)c(OC)c(OC)c3)c2cc1OC`, the IC50 worked out at 13 µM in test [1], 3.5 µM in test [2] and 2.1 µM in test [3].

Compound `COC(=O)c1c(C(=O)N2CCN(CCO)CC2)cc2cc(OC)c(OC)cc2c1/C=C/c1cc(OC)c(OC)c(OC)c1` gave an IC50 in test [1] of more than 100 µM.

`CCOC(=O)C1CCN(C(=O)c2cc3cc(OC)c(OC)cc3c(-c3cc(OC)c(OC)c(OC)c3)c2C(=O)OC)CC1`: the IC50 in test [1] turned out to be 2 µM; in test [2], 60 µM; in test [3], 24 µM.

On to `COC(=O)c1c(C(=O)N2CCN(CCO)CC2)cc2cc(OC)c(OC)cc2c1-c1cc(Br)c(OC)c(OC)c1`, for which the IC50 in test [4] is more than 100 µM; in test [5], more than 100 µM; in test [1], 0.024 µM; in test [2], more than 100 µM; in test [3] it was 11 µM. The EC50 in the test filed under Rattus norvegicus was 0.46 µM.

In test [1], `COC(=O)c1c(C(=O)N2CCOCC2)cc2cc(OC)c(OC)cc2c1-c1cc(OC)c(OC)c(OC)c1` displayed an IC50 of 0.39 µM.

Take `COC(=O)c1c(C(=O)N2CCN(CCO)CC2)cc2ccc(C)cc2c1-c1cc(Br)c(OC)c(OC)c1`: the values for the IC50 in test [1], in test [2] and in test [3] were 0.051 µM, more than 100 µM and 3.5 µM, respectively.

In test [1], `COC(=O)c1c(C(=O)N2CCCCC2)cc2cc(OC)c(OC)cc2c1-c1cc(OC)c(OC)c(OC)c1` showed an IC50 of 2.1 µM. This lies in the single-digit micromolar range.

For the compound `COC(=O)c1c(CN2CCN(CCO)CC2)cc2cc(OC)c(OC)cc2c1-c1cc(OC)c(OC)c(OC)c1`, the IC50 in test [1] was 2.4 µM; in test [2], more than 100 µM; in test [3], 26 µM.

As to `COC(=O)c1c(C(=O)N2CCN(CCO)CC2)cc2c(Cl)cccc2c1-c1cc(Br)c(OC)c(OC)c1`, in the test filed under Rattus norvegicus, a half-maximal effect (EC50) was put at 0.1 µM. This compound had an IC50 in test [1] of 0.0062 µM.

Take `COC(=O)c1c(C(=O)N2CCN(CCO)CC2)cc2cc(OC)c(OC)cc2c1-c1cc(Cl)cc(Cl)c1`: the IC50 in test [1] is 54 µM; in test [2] it was more than 100 µM; in test [3] it was more than 100 µM.

As to `CNC(=O)c1cc2cc(OC)c(OC)cc2c(-c2cc(OC)c(OC)c(OC)c2)c1C(=O)OC`, the results for the IC50 in test [1], in test [2] and in test [3] were more than 100 µM, 2.9 µM and more than 100 µM, respectively.

As to `O=C(O)C1CCN(c2nc(NCc3ccc4c(c3)OCO4)c3cc(Cl)ccc3n2)CC1`, the response in the test filed under Rattus norvegicus was half-maximal at 0.2 µM (EC50). Further, half-maximal inhibition in test [1] (IC50) required 0.0016 µM.

The compound `COC(=O)c1c(C(=O)N2CCCC2)cc2cc(OC)c(OC)cc2c1-c1cc(OC)c(OC)c(OC)c1` displayed an IC50 in test [1] of 0.78 µM.

For the compound `COc1cc2cc3c(c(-c4cc(OC)c(OC)c(OC)c4)c2cc1OC)C(=O)N(C)C3=O`, the IC50 in test [1], in test [2] and in test [3] was more than 100 µM throughout.

For the compound `CCOc1cc2cc(C(=O)N3CCN(CCO)CC3)c(C(=O)OC)c(-c3cc(Br)c(OC)c(OC)c3)c2cc1OC`, in the test filed under Rattus norvegicus, the midpoint of the response, the EC50, lay at 0.3 µM. Moreover, in test [1], inhibition was half-maximal at 0.017 µM (IC50).

With `COc1cc2cc(C(=O)N3CCN(CCO)CC3)c(CO)c(-c3cc(OC)c(OC)c(OC)c3)c2cc1OC`, the IC50 in test [1], in test [2] and in test [3] was more than 100 µM in each case.

In the case of `COC(=O)c1c(C(=O)N2CCN(CCO)CC2)cc2ccc(Cl)cc2c1-c1cc(Br)c(OC)c(OC)c1`, the values for the IC50 in test [1], in test [2] and in test [3] were 0.021 µM, more than 100 µM and 1.1 µM, respectively.

For the compound `COC(=O)c1c(C(=O)N2CCN(CCO)CC2)cc2cc(OC)c(OC)cc2c1-c1cccc([N+](=O)[O-])c1`, the IC50 in test [1], in test [2] and in test [3] was more than 100 µM each time.

In the case of `COC(=O)c1c(C(=O)N2CCN(CCO)CC2)cc2cc(OC)c(OC)cc2c1-c1cccs1`, the IC50 was more than 100 µM in test [1], more than 100 µM in test [2] and 77 µM in test [3].

As to `COC(=O)c1c(C(=O)N2CCN(CCO)CC2)cc2cc(OC)c(OC)cc2c1-c1ccc(Cl)c(Cl)c1`, the IC50 in test [1] was 53 µM; in test [2], more than 100 µM; in test [3], 82 µM.

On to `COc1cc2cc(CO)c(CO)c(-c3cc(OC)c(OC)c(OC)c3)c2cc1OC`, for which the IC50 came to 13 µM in test [1], 0.88 µM in test [2] and 18 µM in test [3].

For the compound `COC(=O)c1c(C(=O)N2CCC(O)CC2)cc2cc(OC)c(OC)cc2c1-c1cc(OC)c(OC)c(OC)c1`, the IC50 was 0.17 µM in test [1], more than 100 µM in test [2] and 74 µM in test [3].

`COC(=O)c1c(C(=O)N(C)C)cc2cc(OC)c(OC)cc2c1-c1cc(OC)c(OC)c(OC)c1`: the IC50 in test [1] worked out at 0.23 µM; in test [2] it was 16 µM; in test [3] it was 35 µM.

In the case of `COC(=O)c1c(C(=O)N2CCN(CCO)CC2)cc2cc(OC)c(OC)cc2c1-c1cc(OC)c(OC)c(OC)c1`, the IC50 is more than 100 µM in test [4]; more than 100 µM in test [5]; 0.094 µM in test [1]; more than 100 µM in test [2]; 41 µM in test [3]. The compound also gave an EC50 in the test listed under Rattus norvegicus of 2 µM.

Turning to `COC(=O)c1c(C(=O)N2CCN(CCO)CC2)cc2cc(OC)c(OC)cc2c1-c1ccc2c(c1)OCO2`, the IC50 in test [1] is 33 µM; in test [2], more than 100 µM; in test [3] it was 55 µM.

Take `COC(=O)c1c(C(=O)N2CCC(=O)CC2)cc2cc(OC)c(OC)cc2c1-c1cc(OC)c(OC)c(OC)c1`: the IC50 was 0.5 µM in test [1], more than 100 µM in test [2] and 88 µM in test [3].

The compound `COC(=O)c1c(C(=O)N2CCN(CCO)CC2)cc2cc(OC)ccc2c1-c1cc(Br)c(OC)c(OC)c1` had an EC50 in the test listed under Rattus norvegicus of 0.56 µM. The midpoint of inhibition in test [1], the IC50, lay at 0.012 µM.

Turning to `COC(=O)c1c(C(=O)N2CCN(CCO)CC2)cc2cc(OC)c(OC)cc2c1-c1cc(Cl)c(OC)c(OC)c1`, the IC50 in test [4] was more than 100 µM; in test [5] it was more than 100 µM; in test [1], 0.049 µM; in test [2], more than 100 µM; in test [3], 26 µM. In the test filed under Rattus norvegicus, this compound showed an EC50 of 1.3 µM.

Consider `COC(=O)c1c(C(N)=O)cc2cc(OC)c(OC)cc2c1-c1cc(OC)c(OC)c(OC)c1`, for which the IC50 is more than 100 µM in test [1], 0.32 µM in test [2] and 0.82 µM in test [3].

The record behind these values is ChEMBL document CHEMBL1132119, “1-Arylnaphthalene lignan: a novel scaffold for type 5 phosphodiesterase inhibitor” (J Med Chem, 1999).
